9 molecules from PubChem BioAssay (NCI) can be followed below.

Some test systems named below: SK-MEL-5 melanoma; MCF7 breast; 786-0 renal; SN12C renal; PC-3 prostate; A549 NSCLC; IGROV1 ovarian; MALME-3M melanoma; TK-10 renal; HT29 colon.
Assay in all cases: NCI-60 cell line screen, 48 h

Values joined by “and” are separate entries in the source; they are usually repeats but may differ in a detail not shown here. Equal values may be shown once.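 How tested: cells in 96-well plates exposed to compound for 48 hours at five concentrations. Here, GI50 denotes the concentration required for 50% inhibition of growth. At the TGI there is no net growth.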 Bounds are passed on as bounds.

As for `CC(=O)O[C@@]12CO[C@@H]1C[C@H](O)[C@@]1(C)C(=O)[C@H](O)C3=C(C)[C@@H](OC(=O)[C@H](O)[C@@H](NC(=O)OC(C)(C)C)c4ccccc4)C[C@@](O)([C@@H](OC(=O)c4ccccc4)C12)C3(C)C` (stereo partly specified), the GI50 is under 0.005 µM with SK-MEL-5 melanoma; under 0.005 µM in the test on MCF7 breast; 0.00549 µM with 786-0 renal; under 0.005 µM in the test on SN12C renal; < 0.005 µM and 0.0218 µM in the test on PC-3 prostate; under 0.005 µM with A549 NSCLC. Moreover, the figures for the GI50 in the test on IGROV1 ovarian, with MALME-3M melanoma and in the test with HT29 colon were 0.0357 µM, 11.3 µM and under 0.005 µM, respectively. For the same molecule, the TGI with SK-MEL-5 melanoma was 9.05 µM and 14.6 µM; in the test on MCF7 breast, 50 µM and 33.5 µM; in the test on 786-0 renal, 50 µM; in the test with SN12C renal, 50 µM; with PC-3 prostate, 50 µM and 80.8 µM; in the test on A549 NSCLC it was 50 µM and > 100 µM. The TGI with IGROV1 ovarian is over 100 µM; in the test with MALME-3M melanoma, 29.6 µM; with TK-10 renal it was 12.1 µM and > 100 µM; in the test with HT29 colon it was 41.7 µM.

As for `Nc1ncn(C2OC(COP(=O)(O)O)C(O)C2O)c(=O)n1` (stereo unspecified), the TGI in the test on SK-MEL-5 melanoma, in the test on MCF7 breast, in the test on 786-0 renal, with SN12C renal, with PC-3 prostate and in the test on A549 NSCLC was over 100 µM throughout. Besides, the TGI in the test with IGROV1 ovarian, in the test with MALME-3M melanoma, in the test with TK-10 renal and in the test with HT29 colon was over 100 µM throughout.

With `O=C1C=C2C=CC3CC2(O1)C1CCCCN31` (stereo unspecified), the GI50 is 15.9 µM and 19.9 µM and 34.9 µM in the test with SK-MEL-5 melanoma; 15.3 µM and 16.8 µM and 32.6 µM in the test on MCF7 breast; 16.3 µM and 15.5 µM and 45.6 µM in the test on 786-0 renal; 11.8 µM and 14.8 µM and 25 µM in the test with SN12C renal; 31.8 µM and 22.9 µM and 64.4 µM in the test on A549 NSCLC; 17.3 µM and 13.6 µM and 31 µM in the test on TK-10 renal. Besides, the GI50 with HT29 colon is 16.1 µM and 12.9 µM and 34.7 µM. The TGI in the test with SK-MEL-5 melanoma is 33.5 µM and 54.5 µM and > 100 µM; in the test on MCF7 breast it was 70.4 µM and 39.5 µM and > 100 µM; in the test with 786-0 renal, 41.3 µM and 49.8 µM and > 100 µM; in the test on SN12C renal, 31.4 µM and 33.7 µM and 74.4 µM; in the test with PC-3 prostate, > 100 µM and 73.4 µM; with A549 NSCLC it was > 100 µM and 63.4 µM. In addition, the TGI in the test on IGROV1 ovarian was 95 µM and 30.8 µM and > 100 µM; in the test on MALME-3M melanoma, 44.4 µM; with TK-10 renal, 79 µM and 41.4 µM and > 100 µM; with HT29 colon, 46.2 µM and 27.8 µM and > 100 µM.

In the case of `COC12C=C/C(=C(/C(=O)OCCSc3ccnn3C)C(=O)CCCCCCCCC3(OC)C=C/C(=C(/C(=O)OCCSc4ccnn4C)C(=O)CCCCCCCC1)O3)O2`, the GI50 in the test with SK-MEL-5 melanoma is 0.581 µM; in the test with MCF7 breast, 0.927 µM; with 786-0 renal, 1.07 µM; in the test with SN12C renal, 1.05 µM; with PC-3 prostate it was 1.51 µM; in the test with A549 NSCLC it was 0.882 µM. Besides, the GI50 was 1.46 µM in the test with IGROV1 ovarian, 0.776 µM in the test on MALME-3M melanoma, 2.35 µM with TK-10 renal and 1.25 µM in the test with HT29 colon. Further, the TGI in the test on SK-MEL-5 melanoma was 1.09 µM; in the test with MCF7 breast it was 15.2 µM; in the test with 786-0 renal it was 4.12 µM; in the test on SN12C renal, 5.64 µM; in the test with PC-3 prostate, over 32.5 µM; in the test on A549 NSCLC, 2.66 µM. The TGI in the test on IGROV1 ovarian was over 32.5 µM; in the test with MALME-3M melanoma it was 2.32 µM; in the test with TK-10 renal, over 32.5 µM; with HT29 colon it was over 32.5 µM.

`c1cc(CN2CCCNCCNCCCNCC2)ccc1CN1CCCNCCNCCCNCC1`: the GI50 in the test on SK-MEL-5 melanoma, in the test with MCF7 breast, in the test on 786-0 renal, in the test with SN12C renal, in the test with PC-3 prostate and in the test with A549 NSCLC was over 100 µM in each case. For the same molecule, the GI50 in the test on IGROV1 ovarian, with MALME-3M melanoma, in the test on TK-10 renal and in the test on HT29 colon was over 100 µM throughout. Moreover, the TGI with SK-MEL-5 melanoma, with MCF7 breast, with 786-0 renal, in the test with SN12C renal, in the test on PC-3 prostate and in the test on A549 NSCLC was over 100 µM each time. The TGI with IGROV1 ovarian, in the test on MALME-3M melanoma, in the test on TK-10 renal and with HT29 colon was over 100 µM in each case.

On to `COC(NC(N)=O)C(=O)O` (stereo unspecified), for which the TGI in the test on SK-MEL-5 melanoma, with MCF7 breast, in the test with 786-0 renal, in the test with SN12C renal, in the test on PC-3 prostate and with A549 NSCLC was over 100 µM each time. The TGI with IGROV1 ovarian, in the test on MALME-3M melanoma, with TK-10 renal and with HT29 colon was over 100 µM each time.

As to `O=C(O)C1CCN(Cc2oc(CO)cc(=O)c2O)C1` (stereo unspecified), the TGI with SK-MEL-5 melanoma, in the test on MCF7 breast, in the test with 786-0 renal, in the test with SN12C renal, in the test on PC-3 prostate and in the test on A549 NSCLC was over 100 µM each time. In addition, the TGI in the test with IGROV1 ovarian, in the test with MALME-3M melanoma, in the test on TK-10 renal and in the test with HT29 colon was over 100 µM in each case.

As to `Cc1ccc(-c2c(C#N)[n+](=O)c3cc(F)c(F)cc3n2[O-])cc1`, the GI50 in the test with SK-MEL-5 melanoma is 14.2 µM; in the test with MCF7 breast, 5.04 µM; in the test with 786-0 renal, 1.54 µM; in the test with SN12C renal, 2.61 µM; in the test on PC-3 prostate, 1.43 µM; with A549 NSCLC, 28.2 µM. Besides, the GI50 was 3.59 µM with IGROV1 ovarian, 2.06 µM in the test on MALME-3M melanoma, 2.37 µM in the test on TK-10 renal and 24.7 µM in the test with HT29 colon. Besides, the TGI with SK-MEL-5 melanoma was 28.1 µM; in the test with MCF7 breast it was 38.1 µM; in the test with 786-0 renal it was 3.53 µM; in the test with SN12C renal, 8.56 µM; in the test with PC-3 prostate, 3.35 µM; in the test with A549 NSCLC, 86 µM. Further, the TGI with IGROV1 ovarian is over 100 µM; in the test with MALME-3M melanoma it was 5.23 µM; with TK-10 renal it was 6.69 µM; in the test on HT29 colon, 61 µM.

As for `O=C1NC(=O)[C@@]2(CC[C@@H](O)C2)c2ccncc21`, the TGI in the test on SK-MEL-5 melanoma, in the test with MCF7 breast, in the test on 786-0 renal, in the test with SN12C renal, with PC-3 prostate and with A549 NSCLC was over 100 µM each time. The TGI in the test with IGROV1 ovarian, in the test on MALME-3M melanoma, with TK-10 renal and in the test on HT29 colon was over 100 µM in each case.
